From patent US11566007B2, “Ras inhibitors” (Revolution Medicines, Inc., priority 2019, dated 2023)

What was measured:
[1] = tested on: NCI-H358 (K-Ras G12C); assay: CellTiter-Glo cell viability assay, NCI-H358; type: cell-based, human; conditions: Homo sapiens, NCI-H358, 120 h, NCI-H358, 5-day treatment; class symbols; read-out: Additional H358 Cell Viability assay data (K-Ras G12C, IC50)
Outline: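 Compounds were dispensed directly onto K-Ras mutant cells and incubated until day 5, then plates were equilibrated to room temperature for about 30 minutes before CellTiter-Glo luminescence. Signals were normalized as (sample/average DMSO)*100 and fitted by four-parameter logistic fit.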

[2] = biological target: KRAS G12S (Homo sapiens (Human), UniProt P01116+P62937, G12S); assay: Ras-Raf (BRAF RBD) disruption / FRET / MOA assay, KRAS G12S; type: biochemical; conditions: Ras-Raf disruption/FRET/MOA assay; class symbols; read-out: KRAS G12S FRET data IC50
Chain of KRAS G12S (P01116-2 other isoform, or with tags, fused parts or gaps G12S): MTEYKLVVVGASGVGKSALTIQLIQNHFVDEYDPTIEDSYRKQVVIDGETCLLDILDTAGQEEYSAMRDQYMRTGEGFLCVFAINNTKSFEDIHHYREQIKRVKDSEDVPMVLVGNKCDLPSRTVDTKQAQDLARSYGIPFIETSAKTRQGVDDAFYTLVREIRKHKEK
Chain of KRAS G12S (P62937 whole entry): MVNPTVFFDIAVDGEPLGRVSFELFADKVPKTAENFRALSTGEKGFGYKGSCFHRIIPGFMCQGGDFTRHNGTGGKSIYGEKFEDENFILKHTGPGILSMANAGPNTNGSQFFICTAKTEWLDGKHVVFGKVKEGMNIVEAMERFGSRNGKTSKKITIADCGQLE
Outline: (§1)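 TR-FRET read-out: a drop in ratio relative to DMSO wells marks disruption of the Ras:RAF complex, reported as IC50. Compounds (3-fold series, 10 points, top 30 μM final) incubated 3 h at 25° C before Eu-anti-His 10 nM and APC-anti-GST 50 nM, 1.5 h more.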

[3] = biological target: KRAS WT (Homo sapiens (Human), UniProt P01116+P62937); assay: Ras-Raf (BRAF RBD) disruption / FRET / MOA assay, KRAS WT; type: biochemical; conditions: read-out: IC50* KRAS WT FRET data
Chain of KRAS WT (P01116-2 other isoform, or with tags, fused parts or gaps): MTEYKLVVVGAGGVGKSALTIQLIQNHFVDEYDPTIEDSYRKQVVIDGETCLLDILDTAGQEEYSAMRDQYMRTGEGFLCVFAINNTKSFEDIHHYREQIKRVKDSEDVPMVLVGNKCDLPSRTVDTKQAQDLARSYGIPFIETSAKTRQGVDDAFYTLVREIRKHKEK
Chain of KRAS WT (P62937 whole entry): as the sequence (P62937 whole entry) above
Outline: as §1

[4] = biological target: KRAS Q61H (Homo sapiens (Human), UniProt P01116+P62937, Q61H); assay: Ras-Raf (BRAF RBD) disruption / FRET / MOA assay, KRAS Q61H; type: biochemical; conditions: Ras-Raf disruption/FRET/MOA assay; class symbols; read-out: KRAS Q61H FRET data IC50
Chain of KRAS Q61H (P01116-2 other isoform, or with tags, fused parts or gaps Q61H): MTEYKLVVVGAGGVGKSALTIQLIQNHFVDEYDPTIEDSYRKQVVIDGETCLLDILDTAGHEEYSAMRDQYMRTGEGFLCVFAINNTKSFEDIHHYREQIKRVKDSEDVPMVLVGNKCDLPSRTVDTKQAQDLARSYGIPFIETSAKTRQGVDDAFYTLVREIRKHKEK
Chain of KRAS Q61H (P62937 whole entry): as the sequence (P62937 whole entry) above
Outline: (§2)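 Compounds were tested as a 10-point 3-fold dilution series from 30 μM final for their ability to drive ternary complex formation between nucleotide-loaded Ras and cyclophilin A, displacing the BRAF RBD. After 3 h at 25° C., anti-His Eu-W1024 (10 nM) and anti-GST allophycocyanin (50 nM) were added for 1.5 h. A TR-FRET ratio decrease versus DMSO gave IC50.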

[5] = biological target: NRAS G12C (Homo sapiens (Human), UniProt P01111+P62937, G12C); assay: Ras-Raf (BRAF RBD) disruption / FRET / MOA assay, NRAS G12C; type: biochemical; conditions: read-out: IC50* NRAS G12C FRET data
Chain of NRAS G12C (P01111 whole entry G12C): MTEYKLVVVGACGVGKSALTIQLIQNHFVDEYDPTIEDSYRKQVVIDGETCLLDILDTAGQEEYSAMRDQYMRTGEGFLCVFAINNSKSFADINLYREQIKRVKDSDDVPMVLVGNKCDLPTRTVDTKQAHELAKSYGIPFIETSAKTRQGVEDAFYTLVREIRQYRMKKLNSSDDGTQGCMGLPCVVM
Chain of NRAS G12C (P62937 whole entry): as the sequence (P62937 whole entry) above
Outline: as §1

[6] = biological target: NRAS Q61K (Homo sapiens (Human), UniProt P01111+P62937, Q61K); assay: Ras-Raf (BRAF RBD) disruption / FRET / MOA assay, NRAS Q61K; type: biochemical; conditions: NRAS Q61K; Ras-Raf disruption/FRET/MOA assay; read-out: IC50* NRAS Q61K FRET data
Chain of NRAS Q61K (P01111 whole entry Q61K): as the sequence (P01111 whole entry G12C) above, with C12G, Q61K counted along it
Chain of NRAS Q61K (P62937 whole entry): as the sequence (P62937 whole entry) above
Outline: as §2

[7] = biological target: NRAS WT (Homo sapiens (Human), UniProt P01111+P62937); assay: Ras-Raf (BRAF RBD) disruption / FRET / MOA assay, NRAS WT; type: biochemical; conditions: read-out: IC50* NRAS WT FRET data
Chain of NRAS WT (P01111 whole entry): as the sequence (P01111 whole entry G12C) above, with C12G counted along it
Chain of NRAS WT (P62937 whole entry): as the sequence (P62937 whole entry) above
Outline: as §2

SMILES	IC50 [1] [nM]	IC50 [2] [nM]	IC50 [3] [nM]	IC50 [4] [nM]	IC50 [5] [nM]	IC50 [6] [nM]	IC50 [7] [nM]
C=CC(=O)N1CC[C@H](C(=O)N(C)[C@H](C(=O)N[C@H]2Cc3cc(C)cc(c3)-c3ccc4c(c3)c(c(-c3cccnc3[C@H](C)OC)n4CC)CC(C)(C)COC(=O)[C@@H]3CCCN(N3)C2=O)C(C)C)C1 (atropisomer, axis not shown) [Example A498]	10 to 100	1000 to 10000	1000 to 10000	1000 to 10000	100 to 1000	1000 to 10000	1000 to 10000
C=CC(=O)N1CC[C@H](C(=O)N(C)[C@H](C(=O)N[C@H]2Cc3cccc(c3)-c3ccc4c(c3)c(c(-c3cccnc3[C@H](C)OC)n4CC#CC)CC(C)(C)COC(=O)[C@@H]3CCCN(N3)C2=O)C(C)C)C1 (atropisomer, axis not shown) [Example A531]	10 to 100	1000 to 10000	1000 to 10000	1000 to 10000	100 to 1000	1000 to 10000	1000 to 10000
C=CC(=O)N1CCOC2(C1)CN(C(=O)N(C)[C@H](C(=O)N[C@H]1Cc3cccc(c3)-c3ccc4c(c3)c(c(-c3cccnc3[C@H](C)OC)n4CC(F)(F)F)CC(C)(C)COC(=O)[C@@H]3CCCN(N3)C1=O)C(C)C)C2 (atropisomer, axis not shown) [Example A538]	10 to 100	100 to 1000	100 to 1000	100 to 1000	10 to 100	100 to 1000	100 to 1000
CO[C@@H](C)c1ncccc1-c1c2c3cc(ccc3n1CC(F)(F)F)-c1cccc(c1)C[C@H](NC(=O)[C@H](C(C)C)N(C)C(=O)N1CCC3(CC1)CN(C(=O)/C=C/CN(C)C)C3)C(=O)N1CCC[C@H](N1)C(=O)OCC(C)(C)C2 (atropisomer, axis not shown) [Example A555]	10 to 100	100 to 1000	100 to 1000	100 to 1000	100 to 1000	100 to 1000	100 to 1000
CCn1c(-c2cccnc2[C@H](C)OC)c2c3cc(ccc31)-c1cccc(c1)C[C@H](NC(=O)[C@H](C(C)C)N1CC[C@@]3(CCN(C(=O)C#C[C@H]4COCCN4C4COC4)C3)C1=O)C(=O)N1CCC[C@H](N1)C(=O)OCC(C)(C)C2 (atropisomer, axis not shown) [Example A567]	< 10	1000 to 10000	1000 to 10000	100 to 1000	10 to 100	1000 to 10000	1000 to 10000
C=CC(=O)N1CCO[C@H]2CN(C(=O)N(C)[C@H](C(=O)N[C@H]3Cc4coc(n4)-c4ccc5c(c4)c(c(-c4cccnc4[C@H](C)OC)n5CC(F)(F)F)CC(C)(C)COC(=O)[C@@H]4CCCN(N4)C3=O)C(C)C)C[C@H]21 (atropisomer, axis not shown) [Example A574]	10 to 100	1000 to 10000	1000 to 10000	100 to 1000	10 to 100	100 to 1000	1000 to 10000
C=CC(=O)N1C[C@@H](N(C)C(=O)N(C)[C@H](C(=O)N[C@H]2Cc3nc(cs3)-c3ccc4c(c3)c(c(-c3cccnc3[C@H](C)OC)n4CC)CC(C)(C)COC(=O)[C@@H]3CCCN(N3)C2=O)C(C)C)[C@@H](C)C1 (atropisomer, axis not shown) [Example A583]	10 to 100	100 to 1000	100 to 1000	100 to 1000	100 to 1000	100 to 1000	100 to 1000
C=CC(=O)N1C[C@H](C)N(C(=O)N(C)[C@H](C(=O)N[C@H]2Cc3nc(cs3)-c3ccc4c(c3)c(c(-c3cccnc3[C@H](C)OC)n4CC)CC(C)(C)COC(=O)[C@@H]3CCCN(N3)C2=O)C(C)C)CC12CC2 (atropisomer, axis not shown) [Example A586]	10 to 100	100 to 1000	100 to 1000	10 to 100	100 to 1000	100 to 1000	100 to 1000
C=CC(=O)N1C[C@@H](C)[C@H](N(C)C(=O)N(C)[C@H](C(=O)N[C@H]2Cc3nc(cs3)-c3ccc4c(c3)c(c(-c3cccnc3[C@H](C)OC)n4CC)CC(C)(C)COC(=O)[C@@H]3CCCN(N3)C2=O)C(C)C)C1 (atropisomer, axis not shown) [Example A588]	10 to 100	1000 to 10000	1000 to 10000	100 to 1000	100 to 1000	100 to 1000	1000 to 10000
C=CC(=O)Nc1cnc(OC[C@H](C(=O)N[C@H]2Cc3cccc(c3)-c3ccc4c(c3)c(c(-c3cccnc3[C@H](C)OC)n4CC)CC(C)(C)COC(=O)[C@@H]3CCCN(N3)C2=O)C(C)C)n1C (atropisomer, axis not shown) [Example A600]	< 10	1000 to 10000	100 to 1000	100 to 1000	< 10	1000 to 10000	100 to 1000
C=CC(=O)N1CCOC2(C1)CN(C(=O)N(C)[C@H](C(=O)N[C@H]1Cc3nc(cs3)-c3ccc4c(c3)c(c(-c3cccnc3[C@H](C)OC)n4CC(F)(F)F)CC(C)(C)COC(=O)[C@@H]3CCCN(N3)C1=O)C(C)C)C2 (atropisomer, axis not shown) [Example A604]	< 10	100 to 1000	100 to 1000	100 to 1000	100 to 1000	100 to 1000	100 to 1000
C=CC(=O)N1CCOC2(CCN(C(=O)N(C)[C@H](C(=O)N[C@H]3Cc4cc(CF)cc(c4)-c4ccc5c(c4)c(c(-c4cccnc4[C@H](C)OC)n5CC(F)(F)F)CC(C)(C)COC(=O)[C@@H]4CCCN(N4)C3=O)C(C)C)CC2)C1 (atropisomer, axis not shown) [Example A605]	10 to 100	100 to 1000	10 to 100	10 to 100	100 to 1000	100 to 1000	10 to 100
C=CC(=O)N1CCOC2(CCN(C(=O)N(C)[C@H](C(=O)N[C@H]3Cc4cccc(c4)-c4ccc5c(c4)c(c(-c4cccnc4[C@H](C)OC)n5CC(F)(F)F)CC(C)(C)COC(=O)[C@@H]4CCCN(N4)C3=O)C(C)C)CC2)C1 (atropisomer, axis not shown) [Example A608]	10 to 100	100 to 1000	100 to 1000	10 to 100	100 to 1000	100 to 1000	100 to 1000
C=CC(=O)N1CCC[C@@H]2CN(C(=O)N(C)[C@H](C(=O)N[C@H]3Cc4nc(cs4)-c4ccc5c(c4)c(c(-c4cccnc4[C@H](C)OC)n5CC)CC(C)(C)COC(=O)[C@@H]4CCCN(N4)C3=O)C(C)C)C[C@@H]21 (atropisomer, axis not shown) [Example A619]	10 to 100	1000 to 10000	1000 to 10000	100 to 1000	100 to 1000	100 to 1000	1000 to 10000
CCn1c(-c2cccnc2[C@H](C)OC)c2c3cc(ccc31)-c1csc(n1)C[C@H](NC(=O)[C@H](C(C)C)N(C)C(=O)N1CCC3(CC1)CN(C(=O)/C=C/CF)C3)C(=O)N1CCC[C@H](N1)C(=O)OCC(C)(C)C2 (atropisomer, axis not shown) [Example A622]	10 to 100	100 to 1000	100 to 1000	10 to 100	10 to 100	10 to 100	100 to 1000
CCn1c(-c2cccnc2[C@H](C)OC)c2c3cc(ccc31)-c1csc(n1)C[C@H](NC(=O)[C@@H](F)COC1CN(C(=O)C#CC(C)(C)N(C)C)C1)C(=O)N1CCC[C@H](N1)C(=O)OCC(C)(C)C2 (atropisomer, axis not shown) [Example A626]	10 to 100	1000 to 10000	1000 to 10000	100 to 1000	< 10	1000 to 10000	1000 to 10000
CO[C@@H](C)c1ncccc1-c1c2c3cc(ccc3n1CC(F)(F)F)N1CCO[C@@H](C[C@H](NC(=O)[C@H](C(C)C)N3CC[C@@]4(CCN(C(=O)C#CC(C)(C)N(C)C)C4)C3=O)C(=O)N3CCC[C@H](N3)C(=O)OCC(C)(C)C2)C1 (atropisomer, axis not shown) [Example A628]	10 to 100	1000 to 10000	> 10000	> 10000	< 10	> 10000	> 10000
C=CC(=O)N(C)CCN1CCN(C(=O)N(C)[C@H](C(=O)N[C@H]2Cc3nc(cs3)-c3ccc4c(c3)c(c(-c3cccnc3[C@H](C)OC)n4CC)CC(C)(C)COC(=O)[C@@H]3CCCN(N3)C2=O)C(C)C)CC1 (atropisomer, axis not shown) [Example A630]	10 to 100	100 to 1000	100 to 1000	100 to 1000	100 to 1000	100 to 1000	100 to 1000
